Entries after “also recorded” stand apart in the source; their conditions may differ. Read-outs that look alike come from different tables or passages of the source.
Columns and labels:
[1] = Phase Ib drug–drug interaction study: safety and tolerability (adverse events); assay type: in vivo, human
From the text: This was a phase Ib, open-label, four-arm, parallel design, multicenter, multiple-dose study in healthy female subjects of non-childbearing potential. Subjects were randomly assigned to 1 of 4 treatment arms in a 1:1:1:1 ratio with stratification according to AAG concentration [low (0.5–0.73 g/L), medium (0.74–0.96 g/L), or high (0.97–1.2 g/L)].

[2] = vismodegib; ANOVA, back-transformed; day 7 (day 11 in Arm B)
[3] = unbound vismodegib; geometric mean (CV %); 2, 6 and 12 h postdose on day 7 (day 11 in Arm B); vismodegib 150 mg QD
Protocol: PK parameters were calculated using noncompartmental methods with WinNonlin (Pharsight Corporation, Mountain View, CA; Version 5.2); the PK analysis used actual times as recorded on the case report form.

[4] = cited from earlier work
Caco-2 cells = conditions: cited from earlier work
human hepatocytes = tested on: human hepatocytes; parameters: method as in PMID 19845436; conditions: 3-h incubation with human hepatocytes; cited from earlier work
[5] = parameters: method as in PMID 19845436; conditions: cited from earlier work
clinical = conditions: female, human, plasma, po, 150 mg
[6] = cited from earlier work; remark: listed apart in the source
P-glycoprotein (P-gp) = conditions: MDCK cells overexpressing P-gp; cited from earlier work
CYP2C9 and CYP3A4 = conditions: cited from earlier work
[7] = cited from earlier work; remark: listed apart in the source
[8] = number of subjects (percent), safety population

CS(=O)(=O)c1ccc(C(=O)Nc2ccc(Cl)c(-c3ccccn3)c2)c(Cl)c1 [Vismodegib, 2-chloro-N-(4-chloro-3-(pyridin-2-yl)phenyl)-4-(methylsulfonyl) benzamide]
Most frequent AEs related to vismodegib: constipation ([1]; across the study): 10.5%
Most frequent AEs related to vismodegib: diarrhea ([1]; across the study): 8.0%
Most frequent AEs related to vismodegib: headache ([1]; across the study): 10.5%
Most frequent AEs related to vismodegib: nausea ([1]; across the study): 9.3%
Treatment-emergent AE: Abdominal distention [1, 8]: 1 (4.5)
Treatment-emergent AE: Abdominal pain [1, 8]: 1 (4.5)
Treatment-emergent AE: Constipation [1, 8]: 4 (18.2)
Treatment-emergent AE: Diarrhea [1, 8]: 1 (4.5)
Treatment-emergent AE: Dizziness [1, 8]: 2 (9.1)
Treatment-emergent AE: Flatulence [1, 8]: 1 (4.5)
Treatment-emergent AE: Headache [1, 8]: 4 (18.2)
Treatment-emergent AE: Nausea [1, 8]: 2 (9.1)
Treatment-emergent AE: Pruritus [1, 8]: 0
Treatment-emergent AE: Rash [1, 8]: 0
Number of treatment-emergent AEs considered related to vismodegib ([1]; of the 127 treatment-emergent AEs): 92
Geometric LS mean of AUC0–24h at steady state [2]: 402 µM·h
Css,ave,u (average unbound plasma concentration at steady state) [3]: 0.150 (50.2) µmol/L
Decrease in solubility from pH 2 to 7 [4]: 10,000 fold
Permeability (Caco-2 cells): high permeability
Parent remaining (human hepatocytes): 96%
Predicted preclinical efficacious levels (unbound concentration range required for efficacy) [5]: 0.042 to 0.068 µM
AUC(0-t) (clinical): 140 µM·h
Cmax (clinical): 7 µM
Tmax (clinical): 6 h
Absolute bioavailability at steady state [6]: less than 10%
Change in steady-state plasma concentrations with dose ([6]; daily dose increased from 150 to 270 or 540 mg): no increase
Increase in total clearance with multiple dosing ([6]; healthy subjects): 81%
Oral steady-state AUC0–24h after multiple dosing compared with AUC from zero to infinity after a single dose ([6]; healthy subjects): approximately eightfold lower
PK variability explained by AAG levels ([6]; patients): > 70%
PK variability explained by AAG levels ([6]; ref data on file): > 70%
Terminal elimination half-life ([6]; single dose): 288 h
P-gp substrate status (P-glycoprotein (P-gp)): weak substrate of P-gp; also recorded: P-glycoprotein (P-gp) substrate
Metabolizing enzymes (CYP2C9 and CYP3A4): primarily metabolized by CYP2C9 and CYP3A4

CC(=O)N1CCN(c2ccc(OCC3COC(Cn4ccnc4)(c4ccc(Cl)cc4Cl)O3)cc2)CC1 (centres unmarked) [ketoconazole]
Impairment of absorption by acid-reducing agents [7]: more than 90%

COC(=O)N[C@H](C(=O)N[C@@H](Cc1ccccc1)[C@@H](O)CN(Cc1ccc(-c2ccccn2)cc1)NC(=O)[C@@H](NC(=O)OC)C(C)(C)C)C(C)(C)C [atazanavir]
Change in bioavailability on co-administration of the PPI lansoprazole [7]: large reduction
